Test results as given in patent publication US20190247322A1, “Active Mixture of 1,2-hexanediol and 1,2-octanediol” (Symrise AG, priority 2015, published 2019).

Tests used:
[1] = water (20° dH) at 20° C., solid active agent; cited from earlier work
Aspergillus niger = test: Antimicrobial activity, minimum inhibitory concentration; assay type: cell-based
From the text: (§1) Antimicrobial activity of a mixture of 1,2-hexanediol and 1,2-octanediol (1:1) was investigated compared to the individual 1,2-diols with regard to 5 prominent microorganisms:
(§2) EC Echerichia coli PA Pseudomonas aeruginosa SA Staphylococcus aureus CA Candida albicans AN Aspergillus niger
(§3) Shown are the minimum inhibitory concentrations (MICs) in percent.

Candida albicans = test: as above; assay type: cell-based
From the text: as §1, §2, §3

Echerichia coli = test: as above; assay type: cell-based
From the text: as §1, §2, §3

Pseudomonas aeruginosa = test: as above; assay type: cell-based
From the text: as §1, §2, §3

Staphylococcus aureus = test: as above; assay type: cell-based
From the text: as §1, §2, §3

Nc1nc2c(ncn2COCCO)c(=O)[nH]1 [Acyclovir, 2-Amino-1,9-dihydro-9-((2-hydroxyethoxy)methyl)-6H-Purin-6-one]
solubility in water [1]: less than 5 g/L

CCCCC(O)CO (centres unmarked) [Comparative Example C1, 1,2-hexanediol]
minimum inhibitory concentration (MIC), AN (Aspergillus niger): 0.63%
minimum inhibitory concentration (MIC), CA (Candida albicans): 1.25%
minimum inhibitory concentration (MIC), EC (Echerichia coli): 1.25%
minimum inhibitory concentration (MIC), PA (Pseudomonas aeruginosa): 0.63%
minimum inhibitory concentration (MIC), SA (Staphylococcus aureus): 2.50%

CCCCCCC(O)CO (centres unmarked) [Comparative Example C2, 1,2-octanediol]
minimum inhibitory concentration (MIC), AN (Aspergillus niger): 0.16%
minimum inhibitory concentration (MIC), CA (Candida albicans): 0.31%
minimum inhibitory concentration (MIC), EC (Echerichia coli): 0.63%
minimum inhibitory concentration (MIC), PA (Pseudomonas aeruginosa): 0.63%
minimum inhibitory concentration (MIC), SA (Staphylococcus aureus): 1.25%
